# Target: human topoisomerase IIα (Homo sapiens, UniProt P11388)
# Assay: DNA cleavage inhibition assay
# Format: biochemical
# human topoisomerase IIα, sequence (P11388 whole entry): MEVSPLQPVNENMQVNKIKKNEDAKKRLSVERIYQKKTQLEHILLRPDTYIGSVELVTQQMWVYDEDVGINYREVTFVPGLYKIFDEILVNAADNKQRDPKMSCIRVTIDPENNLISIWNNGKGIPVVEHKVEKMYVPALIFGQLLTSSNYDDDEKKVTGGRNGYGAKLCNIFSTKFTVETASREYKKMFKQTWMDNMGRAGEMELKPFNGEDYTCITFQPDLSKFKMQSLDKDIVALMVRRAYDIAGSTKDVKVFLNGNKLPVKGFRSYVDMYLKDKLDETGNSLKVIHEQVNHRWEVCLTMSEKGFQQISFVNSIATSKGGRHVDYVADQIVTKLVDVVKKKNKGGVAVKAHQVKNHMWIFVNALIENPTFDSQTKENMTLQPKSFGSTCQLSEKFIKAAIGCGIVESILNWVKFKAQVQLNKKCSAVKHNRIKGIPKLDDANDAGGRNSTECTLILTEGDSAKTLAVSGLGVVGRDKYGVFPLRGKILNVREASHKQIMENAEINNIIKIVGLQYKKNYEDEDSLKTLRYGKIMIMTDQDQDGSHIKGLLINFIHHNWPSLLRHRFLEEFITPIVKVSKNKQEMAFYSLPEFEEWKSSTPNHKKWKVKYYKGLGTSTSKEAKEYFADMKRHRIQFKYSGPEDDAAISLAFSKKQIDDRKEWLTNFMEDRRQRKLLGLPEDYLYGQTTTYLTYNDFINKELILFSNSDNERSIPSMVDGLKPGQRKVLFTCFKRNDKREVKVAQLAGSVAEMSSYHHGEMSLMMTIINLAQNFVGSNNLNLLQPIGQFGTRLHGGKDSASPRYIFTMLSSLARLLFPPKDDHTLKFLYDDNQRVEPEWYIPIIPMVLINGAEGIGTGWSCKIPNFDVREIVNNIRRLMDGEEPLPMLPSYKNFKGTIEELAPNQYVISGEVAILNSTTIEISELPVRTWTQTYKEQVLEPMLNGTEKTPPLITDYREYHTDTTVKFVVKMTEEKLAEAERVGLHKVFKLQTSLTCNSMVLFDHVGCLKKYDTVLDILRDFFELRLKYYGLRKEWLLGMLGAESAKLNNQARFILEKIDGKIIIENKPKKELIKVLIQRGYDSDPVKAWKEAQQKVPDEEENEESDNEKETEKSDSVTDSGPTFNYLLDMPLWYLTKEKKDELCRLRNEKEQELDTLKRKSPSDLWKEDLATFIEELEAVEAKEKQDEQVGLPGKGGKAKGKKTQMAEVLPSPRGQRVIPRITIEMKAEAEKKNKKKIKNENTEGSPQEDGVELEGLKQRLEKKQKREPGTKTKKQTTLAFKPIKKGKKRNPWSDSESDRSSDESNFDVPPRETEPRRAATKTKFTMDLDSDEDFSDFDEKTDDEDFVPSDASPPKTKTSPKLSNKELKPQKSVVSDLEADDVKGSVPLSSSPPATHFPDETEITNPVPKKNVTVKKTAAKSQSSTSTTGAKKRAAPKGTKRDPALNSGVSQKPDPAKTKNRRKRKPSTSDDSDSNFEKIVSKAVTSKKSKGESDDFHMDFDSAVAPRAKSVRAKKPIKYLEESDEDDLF
smiles,measurement,value
"Cc1c2ccncc2c(C)c2c1[nH]c1ccccc12 [ET, 5,11-dimethyl-6H-pyrido[4,3-b]carbazole]",IC50,> 200 µM
